Tests used:
Assay type in all cases: physicochemical
[1] = Hygroscopicity study by dynamic vapor sorption (DVS); details: 25° C., RH 10% per step, 10 min per step
Procedure: Dynamic Vapor Sorption DVS
Model: DVS intrinsic (SMS, British);
Method: 25° C., relative humidity is stepped up at a rate of 10%, the judgment standard is change in moisture content is <0.02% over a 10-minute period.
Dynamic vapor sorption (DVS) experiment are performed for crystal form A in Example 2 to obtain DVS curves under the following conditions: the temperature is 25° C., the relative humidity (RH) is stepped up from RH 0 to RH 90% at a rate of RH 10% per step, with 10 min for each step to reach equilibrium.

[2] = Light stability of the crystal form (XRPD comparison with day 0); details: 25° C., 4500 Lux, XRPD vs day 0
Procedure: (1) Light stability: the test sample is placed in an environment having a temperature of 25° C. and a light condition of 4500 Lux for 5 days and 10 days, respectively, to test the stability of the crystal form, which are compared with XRPD pattern of the crystal form A on day 0.
(1) Light stability: by referring to the same method of light stability test for crystal A, the test sample is placed in an environment having a temperature of 25° C. and a light condition of 4500 Lux for 5 days to test the stability of the crystal form, which is compared with XRPD pattern of the crystal form I on day 0.

[3] = High-temperature stability of the crystal form (XRPD comparison with day 0); details: 60° C., XRPD vs day 0
Procedure: (2) High-temperature stability: the test sample is placed at a temperature of 60° C. for 5 days and 10 days, respectively, to test the stability of the crystal form, which are compared with XRPD pattern of the crystal form A on day 0.
(2) High-temperature stability: by referring to the same method of high-temperature stability test for crystal A, the test sample is placed at a temperature of 60° C. for 5 days to test the stability of the crystal form, which is compared with XRPD pattern of the crystal form I on day 0.

[4] = High-humidity stability 1 of the crystal form (XRPD comparison with day 0); details: 92.5% RH, 25° C., XRPD vs day 0
Procedure: (§1) (3) High-humidity stability 1: the test sample is placed in an environment having a humidity of 92.5% RH and a temperature of 25° C. for 5 days and 10 days, respectively, to test the stability of the crystal form, which are compared with XRPD pattern of the crystal form A on day 0.
as §1, with “1: by referring to the same method of high-humidity stability test 1 for crystal A,” for “1:”, “days” for “days and 10 days, respectively,”, “I” for “A”

[5] = High-humidity stability 2 of the crystal form (XRPD comparison with day 0); details: 75% RH, 40° C., XRPD vs day 0
Procedure: (§2) (4) High-humidity stability 2: the test sample is placed in an environment having a humidity of 75% RH and a temperature of 40° C. for 5 days and 10 days, respectively, to test the stability of the crystal form, which are compared with XRPD pattern of the crystal form A on day 0.
as §2, with “2: by referring to the same method of high-humidity stability test 2 for crystal A,” for “2:”, “days” for “days and 10 days, respectively,”, “I” for “A”

| weight change in each step of 10 min [1] | light stability of the crystal form ([2]; 5 days and 10 days) | high-temperature stability of the crystal form ([3]; 5 days and 10 days) | high-humidity stability 1 of the crystal form ([4]; 5 days and 10 days) | high-humidity stability 2 of the crystal form ([5]; 5 days and 10 days) | Structure (SMILES) | light stability of the crystal form ([2]; 5 days) | high-temperature stability of the crystal form ([3]; 5 days) | high-humidity stability 1 of the crystal form ([4]; 5 days) | high-humidity stability 2 of the crystal form ([5]; 5 days) |
| --- | --- | --- | --- | --- | --- | --- | --- | --- | --- |
| less than 0.02% | good light stability | good high-temperature stability | good high-humidity stability | good high-humidity stability | NC(=O)C(c1ccccc1)(c1ccc(F)cc1)c1ccc(F)cc1 [crystal form A, 2,2-bis(4-fluorophenyl)-2-phenylacetamide] | – | – | – | – |
| – | – | – | – | – | NC(=O)C(c1ccccc1)(c1ccc(F)cc1)c1ccc(F)cc1 [crystal form I, 2,2-bis(4-fluorophenyl)-2-phenylacetamide, reference compound] | unstable under lights and easily transforms into crystal form A | unstable under high temperatures and easily transforms into crystal form A | unstable under high humidity and easily transforms into crystal form A | unstable under high humidity and easily transforms into crystal form A |

Source: patent US12286389B2, “Crystalline form a of 2, 2-bis(4-fluorophenyl)-2-phenylacetamide and preparation method therefor and application thereof” (SHENZHEN RENTAI PHARMATECH LTD., priority 2019, dated 2025)
